Assay [1] deals with U937. The experiment in a line: cells. Further details: species or system AML cell lines (8); Secondary HTS, 10-point dose-response in triplicate, Cell Titer Glo viability, four-parameter fit EC50. The following applies: Homo sapiens, U-937, 72 h, read-out: U937.
The test system of a further assay is ML2. Description: Secondary dose-response HTS, Cell Titer Glo. It is filed as cell-based, human. The following applies: Homo sapiens. For orientation: In ATP-based viability assays light output follows the ATP content of the culture.
The subject of a further assay is M07e. The experiment in a line: cells. Conditions: M-07e, 72 h, read-out: M07e. Further details: species or system AML cell lines (8); Secondary HTS, 10-point dose-response in triplicate, Cell Titer Glo viability, four-parameter fit EC50.
The test system of another assay is CMS. Description: cells. Further details: species or system AML cell lines (8); Secondary HTS, 10-point dose-response in triplicate, Cell Titer Glo viability, four-parameter fit EC50. The following applies: 72 h, read-out: CMS.
For assay [2], the system named is CMK. Description: cells. Further details: species or system AML cell lines (8); Secondary HTS, 10-point dose-response in triplicate, Cell Titer Glo viability, four-parameter fit EC50. The following applies: Homo sapiens, CMK, 72 h, read-out: CMK.
For assay [3], the system named is MV4-11. The experiment in a line: cells. Further details: species or system AML cell lines (8); Secondary HTS, 10-point dose-response in triplicate, Cell Titer Glo viability, four-parameter fit EC50. The following applies: Homo sapiens, MV4-11, 72 h, read-out: MV4-11.
For assay [4], the system named is CHRF288-11. The experiment in a line: Secondary dose-response HTS, Cell Titer Glo. It is filed as cell-based, human. Conditions: Homo sapiens, HTS; secondary high-throughput screen; CHRF288-11; read-out: average effective concentration, CHRF288-11.
The test system of assay [5] is MOLM-13. Description: Secondary dose-response HTS, Cell Titer Glo. Conditions: Homo sapiens; secondary high-throughput screen; MOLM-13; read-out: average effective concentration, MOLM-13. In kind it is cell-based, human.
Assay [6] concerns CHRF288-11. Description: cells. The following applies: 72 h, read-out: CHRF288-11. Further details: species or system AML cell lines (8); Secondary HTS, 10-point dose-response in triplicate, Cell Titer Glo viability, four-parameter fit EC50.
Assay [7] has as its system MOLM-13. Description: cells. Further details: species or system AML cell lines (8); Secondary HTS, 10-point dose-response in triplicate, Cell Titer Glo viability, four-parameter fit EC50. The following applies: Homo sapiens, MOLM-13, 72 h, read-out: MOLM-13.
Assay [8] deals with U937. Description: Secondary dose-response HTS, Cell Titer Glo. In kind it is cell-based, human. Conditions: Homo sapiens.
The test system of assay [9] is CMK. Description: Secondary dose-response HTS, Cell Titer Glo. It is filed as cell-based, human. Conditions: Homo sapiens, CMK, read-out: average effective concentration, CMK.
Assay [10] has as its system MV4-11. Description: Secondary dose-response HTS, Cell Titer Glo. In kind it is cell-based, human. The following applies: Homo sapiens; secondary high-throughput screen; MV4-11; read-out: average effective concentration, MV4-11.
Where [11] appears, read: secondary high-throughput screen, ML-2, read-out: average effective concentration, ML-2.
Setting [12] is: U-937, secondary high-throughput screen, U937, read-out: average effective concentration, U937.
Setting [13] is: secondary high-throughput screen.

pEC50: −log10 of the molar value. Like-named read-outs stand apart in the source and are kept apart here. A value given as a limit tells only on which side of the number the result lay.

Data on 24 molecules can be found in PMC6522510 (Nature Communications, 2019).

Consider `CCC(C)(C)C(=O)O[C@H]1C[C@@H](C)C=C2C=C[C@H](C)[C@H](CC[C@@H]3C[C@@H](O)CC(=O)O3)[C@H]21` [SIMVASTATIN], for which the pEC50 with U937 [1], in the assay with ML2 (setting [11]), with M07e, with CMS, with CMK [2] and in the assay on MV4-11 [3] was under 5.00 each time. The pEC50 in the assay on CHRF288-11 [4] was 5.39; with MOLM-13 [5] it was under 5.00.

As for `CN1c2ccccc2C(=O)N2CCc3c([nH]c4ccccc34)[C@H]21` [EVODIAMINE], the pEC50 with CHRF288-11 [6], in the assay with MV4-11 [3] and in the assay with MOLM-13 [7] was under 5.00 each time.

Take `Cc1[nH]c2ccccc2c1CCNCc1ccc(/C=C/C(=O)NO)cc1` [Panobinostat]: the pEC50 in the assay with U937 [1] was 7.91.

On to `COc1cc(/C=C/c2ccc(O)cc2)cc(OC)c1` [PTEROSTILBENE], for which the pEC50 is under 5.00 with CHRF288-11 [6]; under 5.00 in the assay on ML2 (ML-2, read-out: average effective concentration, ML-2); under 5.00 in the assay with M07e; under 5.00 with CMS; under 5.00 with MV4-11 [3]; under 5.00 with U937 [8] (U-937, read-out: average effective concentration, U937). Moreover, the pEC50 with CMK [9] was 5.85; in the assay on MOLM-13 [5] it was under 5.00.

On to `O=C(O)C[C@H](O)C[C@H](O)/C=C/c1c(C2CC2)nc2ccccc2c1-c1ccc(F)cc1` [PITAVASTATIN], for which the pEC50 in the assay on ML2 (setting [11]) is 5.29; in the assay with M07e, under 5.00; in the assay on CMS, under 5.00; in the assay with CMK [2], under 5.00; in the assay with U937 [8] (setting [12]) it was 5.07; in the assay on CHRF288-11 [4], 5.66. For the same molecule, the pEC50 with MV4-11 [10] was 5.12; in the assay with MOLM-13 [5], 5.28.

`CCN(CCCOc1ccc2c(Nc3cc(CC(=O)Nc4cccc(F)c4)n[nH]3)ncnc2c1)CCOP(=O)(O)O` [barasertib]: the pEC50 in the assay on CHRF288-11 [6], with M07e and with CMS was under 5.00 in each case.

As to `CCN1CCN(Cc2ccc(Nc3ncc(F)c(-c4cc(F)c5nc(C)n(C(C)C)c5c4)n3)nc2)CC1` [LY2835219], the pEC50 with CHRF288-11 [6] was under 5.00; in the assay on ML2 (setting [11]), 5.40; in the assay with M07e, under 5.00; in the assay with CMS, under 5.00; in the assay with CMK [2] it was under 5.00; in the assay with U937 [8] (setting [12]), 5.70. The pEC50 with MV4-11 [10] and in the assay with MOLM-13 [5] was 5.72 in each case.

As for `COc1ccc(C[C@@H](C)[C@@H](C)Cc2ccc(OC)c(OC)c2)cc1OC` [TERAMEPROCOL], the pEC50 with CHRF288-11 [6], in the assay with ML2 (setting [11]), in the assay on M07e, in the assay with CMS, in the assay on CMK [2] and with MV4-11 [3] was under 5.00 throughout. Besides, the pEC50 with U937 [8] (setting [12]) and in the assay on MOLM-13 [5] was under 5.00 in each case.

As to `CN(Cc1cnc2nc(N)nc(N)c2n1)c1ccc(C(=O)N[C@@H](CCC(=O)O)C(=O)O)cc1` [METHOTREXATE], the pEC50 with U937 [1] was under 5.00; with ML2 (setting [11]) it was 9.00; in the assay on M07e it was under 5.00; in the assay on CMS it was under 5.00; with MV4-11 [3], under 5.00; with CHRF288-11 [4] it was 9.00. The pEC50 in the assay on CMK [9] (setting [13]) was 8.35; in the assay with MOLM-13 [5] it was under 5.00.

In the case of `O=c1ncccn1[C@@H]1O[C@H](CO)[C@@H](O)[C@H]1O` [ZEBULARINE], the pEC50 in the assay on U937 [1] is under 5.00; in the assay on ML2 (setting [11]) it was 6.14; in the assay on M07e it was under 5.00; in the assay on CMS, under 5.00; with CMK [2], under 5.00; in the assay with MV4-11 [3], under 5.00. The pEC50 with CHRF288-11 [4] was 5.05; in the assay with MOLM-13 [5], 5.96.

Regarding `C[C@@]1(C(=O)Nc2ccc(F)nc2)CCCN1c1nc(Nc2cc(C3CC3)n[nH]2)c2cccn2n1` [BMS-754807], the pEC50 is under 5.00 in the assay with U937 [1]; under 5.00 with CHRF288-11 [6]; 5.70 with ML2 (setting [11]); under 5.00 in the assay on M07e; under 5.00 with CMS; 5.70 in the assay with CMK [9] (setting [13]). Besides, the pEC50 in the assay with MV4-11 [10] is 5.00; in the assay with MOLM-13 [5], 5.08.

Consider `C[C@H]1[C@H](OC(=O)CCC(=O)O)O[C@@H]2O[C@@]3(C)CC[C@H]4[C@H](C)CC[C@@H]1[C@@]24OO3` [Artesunate], for which the pEC50 with CMK [2] and in the assay on MV4-11 [3] was under 5.00 each time.

`Cc1nc2ccc(CN(C)c3ccc(C(=O)N[C@@H](CCC(=O)O)C(=O)O)s3)cc2c(=O)[nH]1` [RALTITREXED]: the pEC50 in the assay with U937 [1] is under 5.00; in the assay on ML2 (setting [11]), 7.00; in the assay with M07e, under 5.00; in the assay with CMS, under 5.00; in the assay with CMK [2], under 5.00; in the assay on CHRF288-11 [4], 7.02. Further, the values for the pEC50 in the assay on MV4-11 [10] and in the assay with MOLM-13 [5] were 7.57 and 7.17, respectively.

As to `O=C(CCCCCN1C(=O)c2cccc3cccc(c23)C1=O)NO`, the pEC50 with MV4-11 [3] and in the assay on MOLM-13 [7] was under 5.00 each time.

With `O=C(NOC[C@H](O)CO)c1ccc(F)c(F)c1Nc1ccc(I)cc1F` [PD-0325901], the pEC50 in the assay with U937 [1] is under 5.00; in the assay with ML2 (setting [11]), 9.00; in the assay on M07e, under 5.00; with CMS, under 5.00; with CMK [2], under 5.00; with MV4-11 [3] it was under 5.00. In addition, the results for the pEC50 in the assay with CHRF288-11 [4] and in the assay on MOLM-13 [5] were under 5.00 and 6.04, respectively.

Take `CN[C@@H](C)C(=O)N[C@H](C(=O)N1CCC[C@H]1c1nc(C(=O)c2ccc(F)cc2)cs1)C1CCCCC1` [LCL-161]: the pEC50 is under 5.00 in the assay on U937 [1]; 5.30 with ML2 (setting [11]); under 5.00 in the assay with M07e; under 5.00 with CMS; under 5.00 with CMK [2]; under 5.00 in the assay on MV4-11 [3]. Besides, the pEC50 was 5.07 with CHRF288-11 [4] and under 5.00 with MOLM-13 [5].

For the molecule `CC(C)C[C@H](NC(=O)[C@H](Cc1ccccc1)NC(=O)c1cnccn1)B(O)O` [Bortezomib], the pEC50 with CHRF288-11 [6] was 8.68.

Turning to `COc1ccc(-c2ccc3ncc4c(c3c2)n(-c2ccc(N3CCNCC3)c(C(F)(F)F)c2)c(=O)n4C)cn1` [NVP-BGT226], the pEC50 with MOLM-13 [7] was 6.94.

For `CS(=O)(=O)N1CCc2c(-c3cnc(N)nc3)nc(N3CCOCC3)nc21` [CH-5132799], the pEC50 was 5.16 in the assay on ML2 (setting [11]); under 5.00 in the assay with M07e; under 5.00 in the assay on CMS; 5.40 in the assay on U937 [8] (setting [12]); 5.03 in the assay with CHRF288-11 [4]; 5.82 with CMK [9] (setting [13]). Also, the pEC50 in the assay on MV4-11 [10] was 5.41; in the assay with MOLM-13 [5], 5.60.

On to `CC[C@@H]1C(=O)N(C)c2cnc(Nc3ccc(C(=O)N[C@H]4CC[C@H](N5CCN(CC6CC6)CC5)CC4)cc3OC)nc2N1C(C)C` [Volasertib], for which the pEC50 in the assay on M07e was under 5.00; in the assay on MOLM-13 [7], 8.11.

As for `CNC(=O)c1cc(Oc2ccc(NC(=O)Nc3ccc(Cl)c(C(F)(F)F)c3)cc2)ccn1` [Sorafenib], the pEC50 in the assay with CHRF288-11 [6] is under 5.00; with M07e, under 5.00; in the assay with CMS it was under 5.00; in the assay on CMK [2], under 5.00; with MV4-11 [3], 8.14.

In the case of `COc1cc(N2CCC(N3CCN(C)CC3)CC2)ccc1Nc1ncnc(Nc2ccccc2S(=O)(=O)C(C)C)n1` [ASP3026], the pEC50 in the assay with U937 [1] is under 5.00; in the assay on CHRF288-11 [6], under 5.00; in the assay with ML2 (setting [11]), under 5.00; in the assay with M07e it was under 5.00; in the assay with CMS it was under 5.00; in the assay with CMK [9] (setting [13]) it was 5.02. Moreover, the pEC50 in the assay on MV4-11 [10] was under 5.00; in the assay with MOLM-13 [5], 5.10.

For `CO[C@@H](C(=O)N1Cc2n[nH]c(NC(=O)c3ccc(N4CCN(C)CC4)cc3)c2C1)c1ccccc1` [DANUSERTIB], the pEC50 in the assay on CHRF288-11 [6] was under 5.00; in the assay with ML2 (setting [11]), 6.21; in the assay with M07e, under 5.00; with CMS, under 5.00; in the assay on U937 [8] (setting [12]) it was 5.42; in the assay with CMK [9] it was under 5.00. Further, the figures for the pEC50 in the assay with MV4-11 [10] and in the assay on MOLM-13 [5] were 6.32 and 5.85, respectively.

Consider `O=C(NC[C@H](O)CO)c1ccncc1Nc1ccc(I)cc1F` [Pimasertib], for which the pEC50 with U937 [1] is under 5.00; with CHRF288-11 [6] it was under 5.00; in the assay with ML2 (setting [11]), 9.00; in the assay with M07e it was under 5.00; in the assay with CMS, under 5.00; in the assay with CMK [9] (setting [13]), under 5.00. Further, the pEC50 with MOLM-13 [7] is under 5.00; in the assay on MV4-11 [10] it was 5.20.
